Results published in ChEMBL document CHEMBL4334512, “Rationally Designed, Conformationally Constrained Inverse Agonists of RORγt-Identification of a Potent, Selective Series with Biologic-Like in Vivo Efficacy” (J Med Chem, 2019).

Assays:
[1] = Half life in human liver microsomes; type: ADME, Microsome
[2] = Half life in rat liver microsomes; type: ADME, Microsome
[3] = molecular target: T1, Nuclear receptor subfamily 1 group I member 2 (Homo sapiens, UniProt O75469); test: Activity at PXR (unknown origin)
T1 sequence (O75469 whole entry): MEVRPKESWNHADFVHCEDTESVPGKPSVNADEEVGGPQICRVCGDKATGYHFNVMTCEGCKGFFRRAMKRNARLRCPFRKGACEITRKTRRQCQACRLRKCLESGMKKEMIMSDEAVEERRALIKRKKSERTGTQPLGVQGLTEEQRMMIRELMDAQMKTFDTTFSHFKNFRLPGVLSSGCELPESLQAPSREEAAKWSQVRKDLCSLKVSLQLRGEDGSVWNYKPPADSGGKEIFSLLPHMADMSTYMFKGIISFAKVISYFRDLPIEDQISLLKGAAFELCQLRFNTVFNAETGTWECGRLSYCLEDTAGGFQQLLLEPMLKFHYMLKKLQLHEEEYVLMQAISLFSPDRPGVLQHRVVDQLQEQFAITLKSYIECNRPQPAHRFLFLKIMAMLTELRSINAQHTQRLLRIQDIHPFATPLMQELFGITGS

[4] = molecular target: T2, Oxysterols receptor LXR-beta (Homo sapiens, UniProt P55055); test: Activity at LXRbeta (unknown origin)
T2 sequence (P55055 whole entry): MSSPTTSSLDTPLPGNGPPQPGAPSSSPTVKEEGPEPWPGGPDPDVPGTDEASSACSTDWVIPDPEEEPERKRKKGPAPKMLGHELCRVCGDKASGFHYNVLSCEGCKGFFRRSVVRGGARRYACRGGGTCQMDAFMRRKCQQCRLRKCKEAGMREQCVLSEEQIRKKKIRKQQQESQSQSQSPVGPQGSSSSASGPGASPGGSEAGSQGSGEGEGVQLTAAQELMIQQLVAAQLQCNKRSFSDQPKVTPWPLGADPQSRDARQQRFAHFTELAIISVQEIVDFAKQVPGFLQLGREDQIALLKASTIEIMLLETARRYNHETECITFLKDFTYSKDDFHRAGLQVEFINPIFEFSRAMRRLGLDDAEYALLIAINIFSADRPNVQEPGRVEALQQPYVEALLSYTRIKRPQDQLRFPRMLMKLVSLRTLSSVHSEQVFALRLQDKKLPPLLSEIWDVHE

[5] = Cmax in Balb/c mouse at 10 mg/kg, po; type: ADME, organism-based; design: dose 10 mg/kg, route oral; conditions: in vivo
[6] = molecular target: T3, Oxysterols receptor LXR-alpha (Homo sapiens, UniProt Q13133); test: Agonist activity at LXRalpha (unknown origin) by Gal4-Luc reporter gene assay
T3 sequence (Q13133 whole entry): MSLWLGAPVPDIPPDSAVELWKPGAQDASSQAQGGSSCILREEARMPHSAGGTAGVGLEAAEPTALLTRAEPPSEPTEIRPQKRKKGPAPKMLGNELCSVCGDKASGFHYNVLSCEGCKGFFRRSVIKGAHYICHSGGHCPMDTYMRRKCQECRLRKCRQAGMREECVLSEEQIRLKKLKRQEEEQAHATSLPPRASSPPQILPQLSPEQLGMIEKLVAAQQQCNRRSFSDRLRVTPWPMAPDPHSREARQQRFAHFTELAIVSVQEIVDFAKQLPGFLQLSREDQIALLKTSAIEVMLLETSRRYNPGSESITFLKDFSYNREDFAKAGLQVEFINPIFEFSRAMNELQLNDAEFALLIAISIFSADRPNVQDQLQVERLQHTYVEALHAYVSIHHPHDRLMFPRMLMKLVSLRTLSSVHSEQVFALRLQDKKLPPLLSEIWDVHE

[7] = molecular target: T2, Oxysterols receptor LXR-beta; test: Agonist activity at LXRbeta (unknown origin) by Gal4-Luc reporter gene assay
Cytochrome P450 2C19 = Cytochrome P450 2C19 (Homo sapiens, UniProt P33261); test: Inhibition of recombinant CYP2C19 (unknown origin); type: ADME
Sequence of Cytochrome P450 2C19 (P33261 whole entry): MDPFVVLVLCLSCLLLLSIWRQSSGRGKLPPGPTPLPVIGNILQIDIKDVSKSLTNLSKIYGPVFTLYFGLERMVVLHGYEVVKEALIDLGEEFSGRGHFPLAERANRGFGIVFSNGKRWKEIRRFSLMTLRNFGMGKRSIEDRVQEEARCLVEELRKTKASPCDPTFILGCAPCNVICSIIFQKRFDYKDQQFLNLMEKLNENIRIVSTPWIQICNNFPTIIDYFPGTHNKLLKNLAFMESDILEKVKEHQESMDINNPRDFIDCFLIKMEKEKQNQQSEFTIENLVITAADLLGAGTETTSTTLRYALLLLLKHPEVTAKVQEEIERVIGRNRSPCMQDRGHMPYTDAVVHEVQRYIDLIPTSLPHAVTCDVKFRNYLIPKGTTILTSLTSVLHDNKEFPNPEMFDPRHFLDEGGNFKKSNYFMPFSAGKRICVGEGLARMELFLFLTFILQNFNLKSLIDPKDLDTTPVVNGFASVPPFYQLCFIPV

Cytochrome P450 3A4 = Cytochrome P450 3A4 (Homo sapiens, UniProt P08684); test: Inhibition of recombinant CYP3A4 (unknown origin) using BFC substrate; type: ADME
Sequence of Cytochrome P450 3A4 (P08684 whole entry): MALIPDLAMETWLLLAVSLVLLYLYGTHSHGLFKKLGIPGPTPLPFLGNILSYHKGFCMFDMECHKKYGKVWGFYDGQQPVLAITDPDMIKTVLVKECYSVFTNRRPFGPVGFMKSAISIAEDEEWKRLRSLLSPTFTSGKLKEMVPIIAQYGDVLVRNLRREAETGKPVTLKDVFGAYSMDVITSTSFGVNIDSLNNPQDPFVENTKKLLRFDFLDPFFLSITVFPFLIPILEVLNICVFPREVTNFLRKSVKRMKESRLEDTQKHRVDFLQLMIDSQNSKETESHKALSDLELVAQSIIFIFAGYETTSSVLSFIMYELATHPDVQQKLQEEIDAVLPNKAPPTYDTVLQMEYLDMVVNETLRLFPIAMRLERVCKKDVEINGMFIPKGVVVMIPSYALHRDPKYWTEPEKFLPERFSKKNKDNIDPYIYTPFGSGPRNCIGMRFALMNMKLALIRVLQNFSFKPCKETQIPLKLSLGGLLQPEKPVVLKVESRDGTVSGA

[8] = Unbound fraction in rat serum; type: ADME, cell-free
Mus musculus [9] = test: Suppression of IL-22 RNA expression in skin region of mouse model of IL-23 induced acanthosis model of psoriasis at 3 to 30 mg/kg, po BID for 10 days measured every other day; type: functional
[10] = Cmax in mouse at 4 mg/kg, po; type: ADME, organism-based; design: dose 4 mg/kg, route oral; conditions: in vivo
[11] = Cmax in rat at 4 mg/kg, po; type: ADME, organism-based; design: dose 4 mg/kg, route oral; conditions: in vivo
[12] = Cmax in dog at 1 mg/kg, po; type: ADME, organism-based, Canis lupus familiaris; design: dose 1 mg/kg, route oral; conditions: in vivo
[13] = Total AUC in mouse at 4 mg/kg, po; type: ADME, organism-based; design: dose 4 mg/kg, route oral, time AUCmax; conditions: in vivo
[14] = Total AUC in dog at 1 mg/kg, po; type: ADME, organism-based, Canis lupus familiaris; design: dose 1 mg/kg, route oral, time AUCmax; conditions: in vivo
[15] = Clearance in mouse at 2 mg/kg, iv; type: ADME, organism-based; conditions: in vivo
[16] = Clearance in dog at 1 mg/kg, iv; type: ADME, organism-based, Canis lupus familiaris; conditions: in vivo
[17] = Volume of distribution at steady state in mouse at 2 mg/kg, iv; type: ADME, organism-based; conditions: in vivo, read-out: Vdss
[18] = Volume of distribution at steady state in rat at 2 mg/kg, iv; type: ADME, organism-based; conditions: in vivo, read-out: Vdss
[19] = Volume of distribution at steady state in dog at 1 mg/kg, iv; type: ADME, organism-based, Canis lupus familiaris; conditions: in vivo, read-out: Vdss
[20] = Half life in rat at 2 mg/kg, iv; type: ADME, organism-based; conditions: in vivo
[21] = Oral bioavailability in mouse at 4 mg/kg; type: ADME, organism-based; conditions: in vivo
[22] = Oral bioavailability in dog at 1 mg/kg; type: ADME, organism-based, Canis lupus familiaris; conditions: in vivo
Mus musculus [23] = test: Suppression of ear thickness in mouse model of IL-23 induced acanthosis model of psoriasis at 3 mg/kg, po BID for 10 days measured every other day relative to control; type: functional; conditions: 240 h
Mus musculus [24] = test: Suppression of ear thickness in mouse model of IL-23 induced acanthosis model of psoriasis at 10 mg/kg, po BID for 10 days measured every other day relative to control; type: functional; conditions: 240 h
Mus musculus [25] = test: Suppression of ear thickness in mouse model of IL-23 induced acanthosis model of psoriasis at 10 mg/kg, po BID for 10 days measured every other day relative to anti-IL-23 positive control; type: functional
Mus musculus [26] = test: Suppression of ear thickness in mouse model of IL-23 induced acanthosis model of psoriasis at 30 mg/kg, po BID for 10 days measured every other day relative to anti-IL-23 positive control; type: functional
Mus musculus [27] = test: Suppression of IL-17F RNA expression in skin region of mouse model of IL-23 induced acanthosis model of psoriasis at 10 mg/kg, po BID for 10 days measured every other day relative to control; type: functional; conditions: 240 h
Mus musculus [28] = test: Suppression of IL-17F RNA expression in skin region of mouse model of IL-23 induced acanthosis model of psoriasis at 30 mg/kg, po BID for 10 days measured every other day relative to control; type: functional; conditions: 240 h
Mus musculus [29] = test: Suppression of IL-22 RNA expression in skin region of mouse model of IL-23 induced acanthosis model of psoriasis at 30 mg/kg, po BID for 10 days measured every other day relative to control; type: functional; conditions: 240 h

## O=C(N1CC[C@@]2(S(=O)(=O)c3ccc(F)cc3)c3ccc(C(F)(C(F)(F)F)C(F)(F)F)cc3CC[C@@H]12)C1(O)CCS(=O)(=O)CC1
[1]
  half-life: > 2 h
[2]
  half-life: > 2 h
[3]
  IC50: > 40 µM
[4]
  IC50: > 10 µM
[5]
  Cmax: 2900 nM
[6]
  EC50: > 7.5 µM
[7]
  EC50: > 7.5 µM
Cytochrome P450 2C19
  IC50: > 20 µM
Cytochrome P450 3A4
  IC50: > 20 µM
[8]
  fraction unbound: 0.011
Mus musculus [9]
  Activity: Dose-dependent effect
Mus musculus [9]; 240 h
  ED50: 3 mg/kg
[10]
  Cmax: 2200 nM
[11]
  Cmax: 1100 nM
[12]
  Cmax: 700 nM
[13]
  AUC: 58.2 µM·h
[14]
  AUC: 78 µM·h
[15]
  clearance: 1.9 mL/min/kg
[16]
  clearance: 0.35 mL/min/kg
[17]
  Vd: 2.7 L/kg
[18]
  Vd: 2.9 L/kg
[19]
  Vd: 2.6 L/kg
[20]
  half-life: 7 h
[21]
  bioavailability: 100%
[22]
  bioavailability: 100%
Mus musculus [23]
  inhibition in vivo at 3 mg/kg: 28%
Mus musculus [24]
  inhibition in vivo at 10 mg/kg: 51%
Mus musculus [25]
  Efficacy: 88%
Mus musculus [26]
  Efficacy: 98%
Mus musculus [27]
  inhibition in vivo at 10 mg/kg: 69%
Mus musculus [28]
  inhibition in vivo at 30 mg/kg: 85%
Mus musculus [29]
  inhibition in vivo at 30 mg/kg: 97%
